Results published in US4110327A, “2,3 Diketo-piperazinocarbonylamino alkanoic acids and derivatives” (Toyama Chemical Co., Ltd., priority 1974, dated 1978).
≈ marks a conversion by molar mass, not a printed value. Blank lines part the entries; values can stand above or below the compound they belong to.

Columns and labels:
Type in all cases: cell-based
[1] = tested on: Klebsiella pneumoniae; assay: MIC against clinical isolates; settings: unit assumed
[2] = tested on: Staphylococcus aureus; assay: MIC against clinical isolates; settings: unit assumed
[3] = tested on: Escherichia coli; assay: MIC against clinical isolates; settings: unit assumed
[4] = tested on: Proteus mirabilis; assay: MIC against clinical isolates; settings: clinical isolate, unit assumed
[5] = tested on: Proteus rettgeri; assay: MIC against clinical isolates; settings: clinical isolate, unit assumed
[6] = tested on: Proteus vulgaris 3027; assay: MIC against standard strain, plate method; settings: Proteus vulgaris 3027, standard strain; unit assumed
Method in brief: (§1)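 MIC values come from the plate method on heart infusion agar at pH 7.4, with each plate receiving 10^4 cells from a 10^6 cells/ml suspension.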

[7] = tested on: Pseudomonas aeruginosa I.F.O.; assay: MIC against standard strain, plate method; settings: unit assumed
Method in brief: as §1

[8] = tested on: Escherichia coli NIHJ; assay: MIC against standard strain, plate method; settings: unit assumed
Method in brief: as §1

[9] = tested on: Klebsiella pneumoniae; assay: MIC against standard strain, plate method; settings: unit assumed
Method in brief: as §1

[10] = tested on: Staphylococcus aureus 209p; assay: MIC against standard strain, plate method; settings: unit assumed
Method in brief: as §1

[11] = tested on: Proteus morganii; assay: MIC against clinical isolates; settings: clinical isolate, unit assumed
[12] = tested on: Pseudomonas aeruginosa; assay: MIC against clinical isolates; settings: unit assumed
[13] = tested on: Proteus vulgaris; assay: MIC against clinical isolates; settings: clinical isolate, unit assumed
[14] = tested on: Salmonella typhi-murium; assay: MIC against clinical isolates; settings: unit assumed
[15] = tested on: Shigella flexneri; assay: MIC against clinical isolates; settings: unit assumed
Method: (§2) The minimum inhibitory concentrations (MIC) was determined by the plate method disclosed in "Chemotherapy" (Japan), Vol. 16, (1968), pages 98 - 99. The culture medium used was a Heart infusion agar (pH 7.4). The number of the cells per plate used in the inoculum as 10^4 (10^6 cells/ml).
(§3) MIC was determined in the same manner as in the preceding paragraph (1).

[16] = tested on: Shigella sonnei; assay: MIC against clinical isolates; settings: clinical isolate JS 11232; unit assumed
Method: as §2, §3

[17] = tested on: Salmonella typhi; assay: MIC against clinical isolates; settings: unit assumed

SMILES: CC(=O)OCC1=C(C(=O)O)N2C(=O)[C@@H](NC(=O)[C@H](N)c3ccccc3)[C@H]2SC1 [Sodium Cephaloglycin, SodiumCephaloglycin, reference compound]
- MIC ([1]; clinical isolate GN 917): 1.56 µg/mL
- MIC ([1]; clinical isolate GN 4081): 3.13 µg/mL
- MIC ([1]; clinical isolate GN 4117): 3.13 µg/mL
- MIC ([2]; clinical isolate F-1): 3.13 µg/mL
- MIC ([2]; clinical isolate F-2): 1.56 µg/mL
- MIC ([2]; clinical isolate F-3): 1.56 µg/mL
- MIC ([2]; clinical isolate F-4): 3.13 µg/mL
- MIC ([2]; clinical isolate F-5): 25 µg/mL
- MIC ([2]; clinical isolate MS 8588): 3.13 µg/mL
- MIC ([2]; clinical isolate MS 8596): 1.56 µg/mL
- MIC ([2]; clinical isolate MS 8619): 1.56 µg/mL
- MIC ([2]; clinical isolate MS 8684): 1.56 µg/mL
- MIC ([2]; clinical isolate MS 8713): 3.13 µg/mL
- MIC ([3]; clinical isolate GN 3435): 1.56 µg/mL
- MIC ([3]; clinical isolate GN 3452): 3.13 µg/mL
- MIC ([3]; clinical isolate GN 3465): 12.5 µg/mL
- MIC ([3]; clinical isolate GN 3481): 3.13 µg/mL
- MIC ([3]; clinical isolate GN 3611): 25 µg/mL
- MIC ([3]; clinical isolate K-1): 1.56 µg/mL
- MIC ([3]; clinical isolate K-2): 1.56 µg/mL
- MIC ([3]; clinical isolate K-3): 25 µg/mL
- MIC ([3]; clinical isolate K-4): 12.5 µg/mL
- MIC [4]: 3.13 µg/mL
- MIC [5]: 50 µg/mL
- MIC [6]: < 1.57 µg/mL
- MIC [7]: > 200 µg/mL
- MIC [8]: < 1.57 µg/mL
- MIC [9]: 100 µg/mL
- MIC [10]: < 1.57 µg/mL
- MIC [11]: 1.56 µg/mL
- MIC ([12]; clinical isolate GN 82): > 200 µg/mL
- MIC ([12]; clinical isolate GN 163): > 200 µg/mL
- MIC ([12]; clinical isolate GN 221): > 200 µg/mL
- MIC ([12]; clinical isolate GN 244): > 200 µg/mL
- MIC ([12]; clinical isolate GN 376): > 200 µg/mL
- MIC ([12]; clinical isolate GN 383): > 200 µg/mL
- MIC ([12]; clinical isolate GN 1035): > 200 µg/mL
- MIC ([12]; clinical isolate GN 1091): > 200 µg/mL
- MIC ([12]; clinical isolate GN 2565): > 200 µg/mL
- MIC ([12]; clinical isolate GN 2987): > 200 µg/mL
- MIC ([12]; clinical isolate S-1): > 200 µg/mL
- MIC ([12]; clinical isolate S-2): > 200 µg/mL
- MIC ([12]; clinical isolate S-3): > 200 µg/mL
- MIC ([12]; clinical isolate S-4): > 200 µg/mL
- MIC [13]: 50 µg/mL

SMILES: CCCCCCCCN1CCN(C(=O)N[C@@H](C(=O)N[C@@H]2C(=O)N3[C@@H]2SC(C)(C)[C@@H]3C(=O)O)c2ccccc2)C(=O)C1 [compound 16]
- MIC ([1]; clinical isolate GN 917): 12.5 µg/mL (≈ 21.3 µM)
- MIC ([1]; clinical isolate GN 4081): 25 µg/mL (≈ 42.5 µM)
- MIC ([1]; clinical isolate GN 4117): 25 µg/mL (≈ 42.5 µM)
- MIC ([2]; clinical isolate F-1): 6.25 µg/mL (≈ 10.6 µM)
- MIC ([2]; clinical isolate F-2): 0.79 µg/mL (≈ 1.34 µM)
- MIC ([2]; clinical isolate F-4): 6.25 µg/mL (≈ 10.6 µM)
- MIC ([2]; clinical isolate F-5): 100 µg/mL (≈ 170 µM)
- MIC ([2]; clinical isolate MS 8619): < 0.4 µg/mL
- MIC ([3]; clinical isolate GN 3465): 12.5 µg/mL (≈ 21.3 µM)
- MIC ([3]; clinical isolate K-3): 50 µg/mL (≈ 85.1 µM)
- MIC [4]: 1.56 µg/mL (≈ 2.65 µM)
- MIC [5]: 6.25 µg/mL (≈ 10.6 µM)
- MIC ([14]; clinical isolate SL 858): 1.57 µg/mL (≈ 2.67 µM)
- MIC ([14]; clinical isolate SL 2136): 100 µg/mL (≈ 170 µM)
- MIC [6]: < 1.57 µg/mL
- MIC [7]: 12.5 µg/mL (≈ 21.3 µM)
- MIC [8]: < 1.57 µg/mL
- MIC [10]: < 1.57 µg/mL
- MIC ([15]; clinical isolate JS 11215): 6.25 µg/mL (≈ 10.6 µM)
- MIC ([15]; clinical isolate JS 11839): 0.79 µg/mL (≈ 1.34 µM)
- MIC [16]: 6.25 µg/mL (≈ 10.6 µM)
- MIC ([17]; clinical isolate SL 819): 3.13 µg/mL (≈ 5.33 µM)
- MIC ([17]; clinical isolate SL 2169): 1.57 µg/mL (≈ 2.67 µM)
- MIC [11]: 1.56 µg/mL (≈ 2.65 µM)
- MIC ([12]; clinical isolate GN 82): 6.25 µg/mL (≈ 10.6 µM)
- MIC ([12]; clinical isolate GN 163): 12.5 µg/mL (≈ 21.3 µM)
- MIC ([12]; clinical isolate GN 221): 25 µg/mL (≈ 42.5 µM)
- MIC ([12]; clinical isolate GN 376): 25 µg/mL (≈ 42.5 µM)
- MIC ([12]; clinical isolate GN 383): 25 µg/mL (≈ 42.5 µM)
- MIC ([12]; clinical isolate GN 1035): 25 µg/mL (≈ 42.5 µM)
- MIC ([12]; clinical isolate GN 1091): 12.5 µg/mL (≈ 21.3 µM)
- MIC ([12]; clinical isolate GN 2565): 12.5 µg/mL (≈ 21.3 µM)
- MIC ([12]; clinical isolate GN (number not given; Table 5-3)): 12.5 µg/mL (≈ 21.3 µM)
- MIC ([12]; clinical isolate S-1): 12.5 µg/mL (≈ 21.3 µM)
- MIC ([12]; clinical isolate S-2): 25 µg/mL (≈ 42.5 µM)
- MIC ([12]; clinical isolate S-3): 50 µg/mL (≈ 85.1 µM)
- MIC ([12]; clinical isolate S-4): 25 µg/mL (≈ 42.5 µM)
- MIC [13]: 0.8 µg/mL (≈ 1.36 µM)

- MIC ([1]; clinical isolate GN 917): 6.25 µg/mL (≈ 10.9 µM)
- MIC ([1]; clinical isolate GN 4081): 12.5 µg/mL (≈ 21.8 µM)
- MIC ([1]; clinical isolate GN 4117): 12.5 µg/mL (≈ 21.8 µM)
- MIC ([2]; clinical isolate F-1): 3.13 µg/mL (≈ 5.46 µM)
- MIC ([2]; clinical isolate F-2): 1.56 µg/mL (≈ 2.72 µM)
- MIC ([2]; clinical isolate F-3): 1.56 µg/mL (≈ 2.72 µM)
- MIC ([2]; clinical isolate F-4): 3.13 µg/mL (≈ 5.46 µM)
- MIC ([2]; clinical isolate F-5): 50 µg/mL (≈ 87.2 µM)
- MIC ([2]; clinical isolate MS 8588): 1.56 µg/mL (≈ 2.72 µM)
- MIC ([2]; clinical isolate MS 8596): 1.56 µg/mL (≈ 2.72 µM)
- MIC ([2]; clinical isolate MS 8619): 1.56 µg/mL (≈ 2.72 µM)
- MIC ([2]; clinical isolate MS 8684): 1.56 µg/mL (≈ 2.72 µM)
- MIC ([2]; clinical isolate MS 8713): 1.56 µg/mL (≈ 2.72 µM)
- MIC ([3]; clinical isolate GN 3435): 3.13 µg/mL (≈ 5.46 µM)
- MIC ([3]; clinical isolate GN 3452): 6.25 µg/mL (≈ 10.9 µM)
- MIC ([3]; clinical isolate GN 3465): 50 µg/mL (≈ 87.2 µM)
- MIC ([3]; clinical isolate GN 3481): 3.13 µg/mL (≈ 5.46 µM)
- MIC ([3]; clinical isolate GN 3611): 200 µg/mL (≈ 349 µM)
- MIC ([3]; clinical isolate K-1): 3.13 µg/mL (≈ 5.46 µM)
- MIC ([3]; clinical isolate K-2): 6.25 µg/mL (≈ 10.9 µM)
- MIC ([3]; clinical isolate K-3): 100 µg/mL (≈ 174 µM)
- MIC ([3]; clinical isolate K-4): 6.25 µg/mL (≈ 10.9 µM)
- MIC [4]: 1.56 µg/mL (≈ 2.72 µM)
- MIC [5]: 3.13 µg/mL (≈ 5.46 µM)
- MIC [6]: 3.13 µg/mL (≈ 5.46 µM)
- MIC [7]: 25 µg/mL (≈ 43.6 µM)
- MIC [8]: < 0.79 µg/mL
- MIC [9]: 3.13 µg/mL (≈ 5.46 µM)
- MIC [10]: < 0.79 µg/mL
- MIC [11]: 1.56 µg/mL (≈ 2.72 µM)
- MIC ([12]; clinical isolate GN 82): 25 µg/mL (≈ 43.6 µM)
- MIC ([12]; clinical isolate GN 163): 25 µg/mL (≈ 43.6 µM)
- MIC ([12]; clinical isolate GN 221): 6.25 µg/mL (≈ 10.9 µM)
- MIC ([12]; clinical isolate GN 244): 25 µg/mL (≈ 43.6 µM)
- MIC ([12]; clinical isolate GN 376): 12.5 µg/mL (≈ 21.8 µM)
- MIC ([12]; clinical isolate GN 383): 12.5 µg/mL (≈ 21.8 µM)
- MIC ([12]; clinical isolate GN 1035): 100 µg/mL (≈ 174 µM)
- MIC ([12]; clinical isolate GN 1091): 25 µg/mL (≈ 43.6 µM)
- MIC ([12]; clinical isolate GN 2565): 50 µg/mL (≈ 87.2 µM)
- MIC ([12]; clinical isolate GN 2987): 25 µg/mL (≈ 43.6 µM)
- MIC ([12]; clinical isolate S-1): 50 µg/mL (≈ 87.2 µM)
- MIC ([12]; clinical isolate S-2): 50 µg/mL (≈ 87.2 µM)
- MIC ([12]; clinical isolate S-3): 50 µg/mL (≈ 87.2 µM)
- MIC ([12]; clinical isolate S-4): 50 µg/mL (≈ 87.2 µM)
- MIC [13]: 0.8 µg/mL (≈ 1.39 µM)
SMILES: CCN1CCN(C(=O)NC(C(=O)NC2C(=O)N3C(C(=O)O)=C(COC(C)=O)CSC23)c2ccccc2)C(=O)C1=O (centres unmarked) [compound 61]
